Source: patent publication US8324223B2, “Substituted thieno [2,3-d] pyrimidines as HIV inhibitors” (priority 2006, dated 2012)

Legend:
Experiment in all cases: microbe, parasite or virus in culture
Assay type in all cases: cell-based, human immunodeficiency virus type 1 (HIV-1)
wild type HIV-1 = details: Human immunodeficiency virus 1, Hela-JC53, read-out: EC50 WT (nM)
HIV-1 Y181C = details: Human immunodeficiency virus 1, HeLa, read-out: EC50 Y181C (nM)
HIV-1 Y188L = details: Human immunodeficiency virus 1, HeLa, read-out: EC50 Y188L (nM)
HIV-1 L100I-K103N = details: Human immunodeficiency virus 1, HeLa, read-out: EC50 L100I-K103N (nM)

SMILES | EC50 (wild type HIV-1) | EC50 (HIV-1 Y181C) | EC50 (HIV-1 Y188L) | EC50 (HIV-1 L100I-K103N)
Cc1cc(C#N)cc(C)c1Oc1nc(Nc2ccc(C#N)cc2)nc2sccc12 [Cpd 7] | < 10 nM | < 10 nM | < 10 nM | 10 to 100 nM
Cc1cc(C#N)cc(C)c1Oc1nc(Nc2ccc(C#N)cc2)nc2c(C)csc12 [Cpd 9] | < 10 nM | < 10 nM | < 10 nM | < 10 nM
Cc1cc(C#N)cc(C)c1Oc1nc(Nc2ccc(C#N)cc2)nc2ccsc12 [Cpd 3] | < 10 nM | 10 to 100 nM | < 10 nM | < 10 nM
Cc1cc(C)c(Oc2nc(Nc3ccc(C#N)cc3)nc3sccc23)c(C)c1 [Cpd 4] | < 10 nM | 10 to 100 nM | 10 to 100 nM | 10 to 100 nM
Cc1cc(C)c(Nc2nc(Nc3ccc(C#N)cc3)nc3c(C)csc23)c(C)c1 [Cpd 8] | < 10 nM | 10 to 100 nM | 10 to 100 nM | 
Cc1cc(C)c(Nc2nc(Nc3ccc(C#N)cc3)nc3ccsc23)c(C)c1 [Cpd 2] | < 10 nM | 10 to 100 nM | > 100 nM | > 100 nM
Cc1cc(C)c(Oc2nc(Nc3ccc(C#N)cc3)nc3sc4c(c23)CCCC4)c(C)c1 [Cpd 5] | 10 to 100 nM | > 100 nM | > 100 nM | > 100 nM
Cc1cc(C)c(Oc2nc(Nc3ccc(C#N)cc3)nc3ccsc23)c(C)c1 [Cpd 1] | < 10 nM | < 10 nM | < 10 nM | 10 to 100 nM
Cc1cc(C)c(Oc2nc(Nc3ccc(C#N)cc3)nc3c(C)csc23)c(C)c1 [Cpd 6] | 10 to 100 nM | 10 to 100 nM | 10 to 100 nM | 10 to 100 nM
